The values below come from US20260224463A1, “COMPOSITIONS COMPRISING HYDROPHILIC ACTIVE INGREDIENTS IN OIL” (Lubrizol Advanced Materials, Inc., priority 2023, published 2026).

One data set in a line: Log P of the peptides. The class given is physicochemical.
A short description of data set [1]: Visual inspection of physical appearance of the compositions. The class given is physicochemical. To be noted: peptide 0.125 wt. % at the optimal ingredient concentrations, in words. On the procedure:
The stability of the formulations was determined by visual inspection and by quantification of the amount of active ingredient by high performance liquid chromatography (HPLC).
Visual inspection: The results are classified as OK or KO according to the physical appearance. OK represents a transparent solution at t=0 h with small particles at the bottom after 24h. KO represents solutions completely separated into phases, turbid or with an unacceptable precipitate at the bottom.

Broadly, the logP is the decadic logarithm of the partition coefficient of the neutral form, usually between octanol and water.

With “Ac-EEMQRRAD-NH2 [PEP-2, Ac-Glu-Glu-Met-Gln-Arg-Arg-Ala-Asp-NH2]”, the logP in the data set “Log P of the peptides” was -5.84. Also, the “compatibility of the peptide with the composition” value (“compatibility of the peptide” below) in data set [1] was “good compatibility”.

Turning to `CC(C)C[C@H](NC(=O)[C@H](Cc1ccccc1)NC(=O)CNC(=O)[C@@H](C)NC(=O)[C@@H](N)Cc1ccc(O)cc1)C(=O)O` [PEP-9, H-Tyr-D-Ala-Gly-Phe-Leu-OH], the logP in the data set “Log P of the peptides” is -1.02. Also, in data set [1], the “compatibility of the peptide” value is “good compatibility”.

For the molecule “H-FWMKRKRVP-NH2 [PEP-8, H-Phe-Trp-Met-Lys-Arg-Lys-Arg-Val-Pro-NH2]”, in the data set “Log P of the peptides”, the log partition coefficient (logP) was -3.38. The “compatibility of the peptide” value in data set [1] was “good compatibility”.
